Data as given in patent publication US4017611A, “Control of insects with 3-hydroxymethacrylic acid methyl ester dimethylthionophosphate” (priority 1970, dated 1977).
Like-named read-outs stand apart in the source and are kept apart here.

Assays:
[1] = test system: Trogoderma granarium (L); experiment: Durability (disinfection) test on wheat, larvae of the Khapra beetle; assay type: in vivo; details: 168 h, read-out: % animals dead after one week exposure
Source text: (§1) Wheat was shaken up with 5% dusting agent and then mixed again repeatedly with untreated wheat at half the poison concentration. In this way, a dilution series with concentrations of 50 - 25 - 12 - 6 - 3 - 1.5 ppm was obtained.
(§2) Since the test is repeated once per month, the desired information is obtained concerning the residual effect. In the test, the important pests in storage protection were chosen, viz, the grain weevil (Sitophilus granarius) - lesser grain borer (Rhizopertha dominica) and the larvae of the Khapra beetle (Trogoderma granarium), which are very resistant to insecticides. 20 test insects were tested per concentration and the results are expressed in the following table.

[2] = test system: Rhizopertha dominica; experiment: Durability (disinfection) test on wheat, lesser grain borer; assay type: in vivo; details: Rhyzopertha dominica, 168 h, read-out: % animals dead after one week exposure
Source text: as §1, §2

[3] = Acute oral toxicity (warm blooded toxicity) in rats; details: rat, in vivo, po
[4] = test system: Sit. Granarius; experiment: Diffusion action in wheat (gas phase between wheat grains); assay type: in vivo; details: Sitophilus granarius, 168 h, 50 ppm treated wheat layer, read-out: Mortality in % after 7 days exposure time
Source text: A plexiglass box was divided by means of wire grids into ten vertical layers each 1 cm thick. Each compartment was filled with wheat grains. The first compartment contained wheat grains which had been treated with 50 ppm active agent (5% dusting agent). The remainder of the compartment contained untreated wheat. All the compartments were then supplied with grain weevils. The mortality was noted after 7 days exposure time and the results are expressed in the following table. Diffusion of active substance in gas phase between the wheat grains

[5] = test system: Sitophilus granarius; experiment: Durability (disinfection) test on wheat, grain weevil; assay type: in vivo; details: 168 h, read-out: % animals dead after one week exposure
Source text: as §1, §2

## COP(=O)(OC)OC=C(Cl)Cl [DDVP, dimethyldichlorvinylphosphate, reference compound]
[1]; wheat fresh
  mortality at 1.5 ppm: 85%
  mortality at 3 ppm: 100%
  mortality at 6 ppm: 100%
  mortality at 12 ppm: 100%
  mortality at 25 ppm: 100%
  mortality at 50 ppm: 100%
[1]; wheat stored 1 month
  mortality at 1.5 ppm: 0%
  mortality at 3 ppm: 0%
  mortality at 6 ppm: 0%
  mortality at 12 ppm: 5%
  mortality at 25 ppm: 75%
  mortality at 50 ppm: 100%
[1]; wheat stored 2 months
  mortality at 1.5 ppm: 0%
  mortality at 3 ppm: 0%
  mortality at 6 ppm: 0%
  mortality at 12 ppm: 0%
  mortality at 25 ppm: 10%
  mortality at 50 ppm: 45%
[1]; wheat stored 3 months
  mortality at 1.5 ppm: 0%
  mortality at 3 ppm: 0%
  mortality at 6 ppm: 0%
  mortality at 12 ppm: 0%
  mortality at 25 ppm: 0%
  mortality at 50 ppm: 0%
[2]; wheat fresh
  mortality at 1.5 ppm: 95%
  mortality at 3 ppm: 100%
  mortality at 6 ppm: 100%
  mortality at 12 ppm: 100%
  mortality at 25 ppm: 100%
  mortality at 50 ppm: 100%
[2]; wheat stored 1 month
  mortality at 1.5 ppm: 0%
  mortality at 3 ppm: 5%
  mortality at 6 ppm: 10%
  mortality at 12 ppm: 15%
  mortality at 25 ppm: 65%
  mortality at 50 ppm: 100%
[2]; wheat stored 2 months
  mortality at 1.5 ppm: 5%
  mortality at 3 ppm: 0%
  mortality at 6 ppm: 5%
  mortality at 12 ppm: 20%
  mortality at 25 ppm: 40%
  mortality at 50 ppm: 95%
[2]; wheat stored 3 months
  mortality at 1.5 ppm: 0%
  mortality at 3 ppm: 0%
  mortality at 6 ppm: 0%
  mortality at 12 ppm: 0%
  mortality at 25 ppm: 15%
  mortality at 50 ppm: 80%
[3]
  LD50: 50 mg/kg
[4]; distance 1 cm
  mortality at 50 ppm: 100%
[4]; distance 2 cm
  mortality at 50 ppm: 100%
[4]; distance 3 cm
  mortality at 50 ppm: 80%
[4]; distance 4 cm
  mortality at 50 ppm: 0%
[4]; distance 5 cm
  mortality at 50 ppm: 0%
[4]; distance 6 cm
  mortality at 50 ppm: 0%
[5]; wheat fresh
  mortality at 1.5 ppm: 100%
  mortality at 3 ppm: 100%
  mortality at 6 ppm: 100%
  mortality at 12 ppm: 100%
  mortality at 25 ppm: 100%
  mortality at 50 ppm: 100%
[5]; wheat stored 1 month
  mortality at 1.5 ppm: 0%
  mortality at 3 ppm: 5%
  mortality at 6 ppm: 25%
  mortality at 12 ppm: 100%
  mortality at 25 ppm: 100%
  mortality at 50 ppm: 100%
[5]; wheat stored 2 months
  mortality at 1.5 ppm: 0%
  mortality at 3 ppm: 0%
  mortality at 6 ppm: 0%
  mortality at 12 ppm: 55%
  mortality at 25 ppm: 100%
  mortality at 50 ppm: 100%
[5]; wheat stored 3 months
  mortality at 1.5 ppm: 0%
  mortality at 3 ppm: 0%
  mortality at 6 ppm: 0%
  mortality at 12 ppm: 0%
  mortality at 25 ppm: 50%
  mortality at 50 ppm: 99%
